These results are taken from patent US20240238265A1 (priority 2020, published 2024).

Series [1] deals with pseudotyped VSV expressing EBOV glycoprotein. The series can be described thus: microbe, parasite or virus in culture. The format is cell-based, Ebola virus (EBOV). Particulars: read-out: EC50 (uM) Pseudotype Assays EBOV.
Series [2] deals with pseudotyped VSV expressing BDBV glycoprotein. The series can be described thus: microbe, parasite or virus in culture. The format is cell-based, Bundibugyo virus (BDBV). As to conditions: Vesicular stomatitis virus, Vero, 24 h, read-out: EC50 (uM) Pseudotype Assays BDBV.
For series [3], the system named is pseudotyped VSV expressing SUDV glycoprotein. The series can be described thus: microbe, parasite or virus in culture. As to conditions: read-out: EC50 (uM) Pseudotype Assays SUDV. The format is cell-based, Sudan virus (SUDV).
The subject of series [4] is pseudotyped VSV expressing MARV glycoprotein. Description: microbe, parasite or virus in culture. The format is cell-based, Marburg virus (MARV). As to conditions: Vesicular stomatitis virus, Vero, 24 h, read-out: EC50 (uM) Pseudotype Assays MARV.
A short description of the next series: in vitro. Particulars: African green monkey.
The conditions of series [5]: 1 h, pH 7.4.
The conditions of series [6]: 1 h, pH 7.4. The source holds these as a separate data set.
The conditions of series [7]: 1 h, pH 7.4. The source holds these as a separate data set.
For series [8] the following is noted: 1 h, pH 7.4. This is another data set of the same source.
The mark [9] stands for this setting: Vesicular stomatitis virus, Vero, 24 h.

Each structure is given as a SMILES string. Where two headings read alike, the source gives them in different places. Where only a bound is given, the exact number is not on record here.

For orientation: EC50 means the midpoint of the concentration-response curve. As for `CC12CC3CC(C(=S)N4CC[C@H](N)C(C)(C)C4)(C1)CC(c1ccccc1)(C3)C2` (mixture of isomers) [Example C1], the concentration for a half-maximal effect (EC50) in [1] (Zaire ebolavirus, Vero, 24 h) came to 0.06 µM; in series [2] it was 0.085 µM; in series [3] (setting [9]) it was 0.035 µM.
On the same counts, the results for `CC12CC3CC(C(=S)N[C@H]4CC[C@H](N)CC4)(C1)CC(c1ccccc1)(C3)C2` (mixture of isomers) [Example C2] are 0.06 µM, 0.085 µM and 0.07 µM.
On the same counts, the results for `CC12CC3CC(C(=S)N[C@H]4CN5CCC4CC5)(C1)CC(c1ccccc1)(C3)C2` (mixture of isomers) [Example C3] are 0.17 µM, 0.24 µM and 0.1 µM.
Consider `CC1(C)CN(C(=O)C23CC4CC(CCl)(C2)CC(c2ccccc2)(C4)C3)CC[C@@H]1N` (mixture of isomers) [Example E2, rac-((S)-4-amino-3,3-dimethylpiperidin-1-yl)(3-(chloromethyl)-5-phenyladamantan-1-yl)methanone], for which the EC50 was 0.057 µM in series [1] (Zaire ebolavirus, Vero, 24 h); 0.35 µM in series [2]; 0.165 µM in series [3] (setting [9]); above 1 µM in [4]. The compound further showed a CC50 in “in vitro” of 36.9 µM.
Take `N[C@H]1CC[C@H](NC(=O)C23CC4CC(Br)(C2)CC(c2ccccc2)(C4)C3)CC1` (mixture of isomers) [Example E3, rac-trans-N-(4-aminocyclohexyl)-3-bromo-5-phenyladamantane-1-carboxamide]: the EC50 in series [1] (Zaire ebolavirus, Vero, 24 h) was 0.061 µM; in series [2] it was 0.19 µM; in series [3] (setting [9]) it was 0.34 µM. Also, in [5], the “Percent parent compound remaining at 60 minutes in liver microsomes, Human” value (shortened to “Percent parent compound remaining … Human”) is on record as 97.5%. For the same compound, the “Percent parent compound remaining at 60 minutes in liver microsomes, Monkey” value in series [6] came to 91%. Moreover, in [7], the “Percent parent compound remaining at 60 minutes in liver microsomes, Guinea Pig” value (shortened to “Percent parent compound remaining … Guinea Pig”) was found to be 96%.
Take `CSCC12CC3CC(C(=O)N[C@H]4CC[C@H](N)CC4)(C1)CC(c1ccccc1)(C3)C2` (mixture of isomers) [Example E6, rac-trans-N-(4-aminocyclohexyl)-3-((methylthio)methyl)-5-phenyladamantane-1-carboxamide]: the EC50 was 0.05 µM in series [1] (Zaire ebolavirus, Vero, 24 h); 0.6 µM in series [2]; 0.75 µM in [3] (setting [9]); above 1 µM in series [4]. In “in vitro”, this compound gave a CC50 of 34.6 µM.
Turning to `N[C@H]1CC[C@H](NC(=O)C23CC4CC(CSc5ccccc5)(C2)CC(c2ccccc2)(C4)C3)CC1` (mixture of isomers) [Example E7, rac-trans-N-(4-aminocyclohexyl)-3-phenyl-5-((phenylthio)methyl)adamantane-1-carboxamide], the EC50 is 0.056 µM in [1] (Zaire ebolavirus, Vero, 24 h); 1.21 µM in series [2]; above 1 µM in series [3] (setting [9]); above 1 µM in [4]. The CC50 in the series “in vitro” was 4.75 µM.
As to `CC1(C)CN(C(=O)C23CC4CC(CSc5ccccc5)(C2)CC(c2ccccc2)(C4)C3)CC[C@@H]1N` (mixture of isomers) [Example E8, rac-((S)-4-amino-3,3-dimethylpiperidin-1-yl)(3-phenyl-5-((phenylthio)methyl)adamantan-1-yl)methanone], the EC50 was 0.145 µM in [1] (Zaire ebolavirus, Vero, 24 h); above 1 µM in series [2]; above 1 µM in series [3] (setting [9]); above 1 µM in [4].
As to `CC1(C)CN(C(=S)[C@@]23C[C@H]4C[C@@](C)(C2)C[C@](c2ccccc2)(C4)C3)CC[C@@H]1N` [Example A1, ((S)-4-amino-3,3-dimethylpiperidin-1-yl)((1 S,3R,5R,7S)-3-methyl-5-phenyladamantan-1-yl)methanethione], the EC50 was 0.061 µM in series [1] (Zaire ebolavirus, Vero, 24 h); 0.11 µM in [2]; 0.043 µM in series [3] (setting [9]); above 1 µM in series [4]. Besides, the “Percent parent compound remaining … Human” value in series [5] is recorded as 72%. Further, the “Percent parent compound remaining at 60 minutes in liver microsomes, Monkey” value in series [6] was 19%. Besides, the “Percent parent compound remaining … Guinea Pig” value in series [7] is 32%. Further, in the series “in vitro”, the CC50 was 3.8 µM.
With `C[C@]12CC3CC(C(=S)N[C@H]4CN5CCC4CC5)(C1)C[C@@](c1ccccc1)(C3)C2` [Example A3], the EC50 in series [1] (Zaire ebolavirus, Vero, 24 h) is 0.067 µM; in [2] it was 0.29 µM; in series [3] (setting [9]), 0.08 µM; in [4], above 1 µM. In addition, the CC50 in the series “in vitro” was found to be 1.77 µM.
Take `C[C@]12CC3CC(C(=S)N4CCC(N)CC4)(C1)C[C@@](c1ccccc1)(C3)C2` [Example A4]: the concentration for a half-maximal effect (EC50) in [1] (Zaire ebolavirus, Vero, 24 h) worked out at 0.085 µM; in series [2] it was 0.06 µM; in series [3] (setting [9]) it was 0.04 µM. In the series “in vitro”, the CC50 was 4.09 µM.
For the compound `C[C@]12CC3CC(C(=S)N[C@H]4CC[C@@H](N)CC4)(C1)C[C@@](c1ccccc1)(C3)C2` [Example A5], the 50% effective concentration (EC50) was 0.12 µM in series [1] (Zaire ebolavirus, Vero, 24 h); 0.19 µM in [2]; 0.125 µM in series [3] (setting [9]).
In the case of `C[C@]12CC3CC(C(=S)NC4CCNCC4)(C1)C[C@@](c1ccccc1)(C3)C2` [Example A6], the EC50 in series [1] (Zaire ebolavirus, Vero, 24 h) was found to be 0.064 µM; in [2], 0.085 µM; in [3] (setting [9]) it was 0.08 µM. In “in vitro”, this compound yielded a CC50 of 4.72 µM.
With `C[C@]12CC3CC(C(=S)N[C@H]4CC[C@H](CN)CC4)(C1)C[C@@](c1ccccc1)(C3)C2` [Example A7], the 50% effective concentration (EC50) in series [1] (Zaire ebolavirus, Vero, 24 h) came to 0.075 µM; in series [2] it was 0.09 µM; in series [3] (setting [9]) it was 0.095 µM. Moreover, the CC50 in “in vitro” worked out at 2.86 µM.
With `CC1(C)CN(C(=S)C23CC4C[C@](C)(C2)C[C@@](c2ccccc2)(C4)C3)CC[C@@H]1N` [Example B1], the EC50 in series [1] (Zaire ebolavirus, Vero, 24 h) came out at 0.74 µM; in series [2], 0.4 µM; in series [3] (setting [9]), 0.26 µM.
On to `C[C@@]12CC3CC(C(=S)N[C@H]4CC[C@H](N)CC4)(C1)C[C@](c1ccccc1)(C3)C2` [Example B2], for which the 50% effective concentration (EC50) turned out to be 0.09 µM in [1] (Zaire ebolavirus, Vero, 24 h); 0.16 µM in series [2]; 0.26 µM in series [3] (setting [9]). In addition, the CC50 in “in vitro” amounted to 3.72 µM.
Turning to `C[C@@]12CC3CC(C(=S)N[C@H]4CN5CCC4CC5)(C1)C[C@](c1ccccc1)(C3)C2` [Example B3], the EC50 in [1] (Zaire ebolavirus, Vero, 24 h) is 0.66 µM; in series [2], 0.31 µM; in series [3] (setting [9]), 0.36 µM; in [4], above 1 µM.
In the case of `N[C@H]1CC[C@H](NC(=S)C2C3CC4CC2CC(c2ccccc2)(C4)C3)CC1` (stereo partly drawn) [Example D1, trans-N-(4-aminocyclohexyl)-5-phenyladamantane-2-carbothioamide], the EC50 in series [1] (Zaire ebolavirus, Vero, 24 h) came out at 0.21 µM; in series [2] it was 0.3 µM; in [3] (setting [9]) it was 0.29 µM.
For `CC(C)CC1C2CC3(C(=O)N[C@H]4CC[C@H](N)CC4)CC1CC(c1ccccc1)(C2)C3` (stereo partly shown) [Example F4], the EC50 came out at 0.016 µM in series [1] (Zaire ebolavirus, Vero, 24 h); 0.3 µM in [2]; 0.86 µM in series [3] (setting [9]); 1.38 µM in [4]. The compound also returned a CC50 in the series “in vitro” of 5.8 µM.
Consider `CCC1C2CC3(C(=O)N4CC[C@H](N)C(C)(C)C4)CC1CC(c1ccccc1)(C2)C3` (stereo partly shown) [Example F5], for which the EC50 in series [1] (Zaire ebolavirus, Vero, 24 h) is 0.046 µM; in [3] (setting [9]) it was 0.1 µM. In the series “in vitro”, this compound returned a CC50 of 12.3 µM.
Turning to `CC1(O)C2CC3(C(=O)N[C@H]4CC[C@H](N)CC4)CC1CC(c1ccccc1)(C2)C3` (stereo partly drawn) [Example H1, trans-N-(4-aminocyclohexyl)-6-hydroxy-6-methyl-3-phenyladamantane-1-carboxamide], the EC50 is above 1 µM in series [1] (Zaire ebolavirus, Vero, 24 h) and above 1 µM in series [3] (setting [9]).
On to `CC1(O)C2CC3(C(=O)N[C@H]4CC[C@H](N)CC4)CC1CC(c1ccccc1)(C2)C3` (stereo partly drawn) [Example H2, trans-N-(4-aminocyclohexyl)-6-hydroxy-6-methyl-3-phenyladamantane-1-carboxamide], for which the EC50 in [1] and in [3] was above 1 µM throughout.
Consider `CCC1(Cl)C2CC3(C(=O)N4CC[C@H](N)C(C)(C)C4)CC1CC(c1ccccc1)(C2)C3` (stereo partly drawn) [Example H3, ((S)-4-amino-3,3-dimethylpiperidin-1-yl)(6-chloro-6-ethyl-3-phenyladamantan-1-yl)methanone], for which the EC50 turned out to be 0.063 µM in series [1] (Zaire ebolavirus, Vero, 24 h) and 0.17 µM in series [3] (setting [9]). The CC50 in “in vitro” amounted to 14.7 µM.
As for `N[C@H]1CC[C@H](NC(=O)C23CC4CC(c5ccccc5)(CC(C2)C4CCF)C3)CC1` (stereo partly drawn) [Example H4, trans-N-(4-aminocyclohexyl)-6-(2-fluoroethyl)-3-phenyladamantane-1-carboxamide], the EC50 is 0.014 µM in [1] (Zaire ebolavirus, Vero, 24 h) and 0.16 µM in series [3] (setting [9]). For the same compound, the “Percent parent compound remaining … Human” value in series [5] came to 81%. In series [8], the “Percent parent compound remaining at 60 minutes in liver microsomes, Mouse” value stood at 39%. For the same compound, in series [7], the “Percent parent compound remaining … Guinea Pig” value is 80.5%. This compound registered a CC50 in the series “in vitro” of 25.1 µM.
For `N[C@H]1CC[C@H](NC(=O)C23CC4CC(c5ccccc5)(CC(C2)C4CCCl)C3)CC1` (stereo partly drawn) [Example H5, trans-N-(4-aminocyclohexyl)-6-(2-chloroethyl)-3-phenyladamantane-1-carboxamide], the EC50 in [1] (Zaire ebolavirus, Vero, 24 h) was found to be 0.01 µM; in series [3] (setting [9]) it was 0.27 µM. Also, the “Percent parent compound remaining … Human” value in [5] was 85%. Also, in series [8], the “Percent parent compound remaining at 60 minutes in liver microsomes, Mouse” value is recorded as 35%. Further, in series [7], the “Percent parent compound remaining … Guinea Pig” value is 80.5%. In “in vitro”, this compound came in with a CC50 of 7.27 µM.
Turning to `N[C@H]1CC[C@H](NC(=O)C23CC4CC(c5ccccc5)(CC(C2)C4CC(F)F)C3)CC1` (stereo partly drawn) [Example H6, trans-N-(4-aminocyclohexyl)-6-(2,2-difluoroethyl)-3-phenyladamantane-1-carboxamide], the EC50 in series [1] (Zaire ebolavirus, Vero, 24 h) was 0.02 µM; in series [3] (setting [9]), 0.18 µM. In the series “in vitro”, this compound gave a CC50 of 22.2 µM.
